Data taken from the supplement of paper PMC13380429.

Columns and labels:
Conditions in all cases: 72 h
U2OS [1] = test: cell viability relative to DMSO; higher = less toxic
HepG2 [2] = test: as above
Caco-2 [3] = test: as above
Vero E6 [4] = test: as above
Calu-3 [5] = test: as above
U2OS [6] = test: relative viability EC50 (midpoint between 100% and the lowest measured viability); higher = less toxic
HepG2 [7] = test: as above
Caco-2 [8] = test: as above
Vero E6 [9] = test: as above
Calu-3 [10] = test: as above
U2OS [11] = test: drug sensitivity score (DSS) for viability; higher = more toxic; extreme values may be limits of the assay
HepG2 [12] = test: as above
Caco-2 [13] = test: as above
Vero E6 [14] = test: as above
Calu-3 [15] = test: as above

SMILES	cell viability (U2OS [1]; 1 nM)	cell viability (U2OS [1]; 10 nM)	cell viability (U2OS [1]; 100 nM)	cell viability (U2OS [1]; 1000 nM)	cell viability (U2OS [1]; 10000 nM)	cell viability (HepG2 [2]; 1 nM)	cell viability (HepG2 [2]; 10 nM)	cell viability (HepG2 [2]; 100 nM)	cell viability (HepG2 [2]; 1000 nM)	cell viability (HepG2 [2]; 10000 nM)	cell viability (Caco-2 [3]; 1 nM)	cell viability (Caco-2 [3]; 10 nM)	cell viability (Caco-2 [3]; 100 nM)	cell viability (Caco-2 [3]; 1000 nM)	cell viability (Caco-2 [3]; 10000 nM)	cell viability (Vero E6 [4]; 1 nM)	cell viability (Vero E6 [4]; 10 nM)	cell viability (Vero E6 [4]; 100 nM)	cell viability (Vero E6 [4]; 1000 nM)	cell viability (Vero E6 [4]; 10000 nM)	cell viability (Calu-3 [5]; 1 nM)	cell viability (Calu-3 [5]; 10 nM)	cell viability (Calu-3 [5]; 100 nM)	cell viability (Calu-3 [5]; 1000 nM)	cell viability (Calu-3 [5]; 10000 nM)	relative viability EC50 (U2OS [6])	relative viability EC50 (HepG2 [7])	relative viability EC50 (Caco-2 [8])	relative viability EC50 (Vero E6 [9])	relative viability EC50 (Calu-3 [10])	drug sensitivity score (U2OS [11])	drug sensitivity score (HepG2 [12])	drug sensitivity score (Caco-2 [13])	drug sensitivity score (Vero E6 [14])	drug sensitivity score (Calu-3 [15])
COc1cc(C[C@H]2C(=O)OC[C@@H]2Cc2ccc(OC)c(OC)c2)ccc1O [arctigenin]	101%	101%	98.3%	92%	86%	93.7%	94.8%	96.6%	77.3%	21%	96.2%	98.9%	94.5%	84.4%	77.1%	96%	98.2%	89.8%	100%	95%	112%	96.9%	103%	97.9%	89.3%	> 10 µM	1.44 µM	> 10 µM	> 10 µM	> 10 µM	0.4	7.8	2.3	0	0
CCCCc1nc(Cl)c(CO)n1Cc1ccc(-c2ccccc2-c2nnn[nH]2)cc1 [losartan]	99.1%	104%	96.4%	105%	96.5%	110%	116%	104%	96.7%	96.7%	94.1%	102%	93.2%	94.7%	95.5%	103%	102%	102%	98.1%	101%	103%	84.4%	96.2%	97.5%	94.6%	> 10 µM	> 10 µM	> 10 µM	> 10 µM	> 10 µM	0	0	0	0	0
CN1CCN(CCc2ccc(Cl)c(Cl)c2)CC1 [BD-1063]	94.2%	100%	93.9%	100%	95.3%	108%	102%	103%	92.4%	87.7%	98.6%	100%	95%	91.3%	92.2%	105%	101%	105%	95.1%	93.9%	91.3%	96.2%	102%	96.9%	101%	> 10 µM	> 10 µM	> 10 µM	> 10 µM	> 10 µM	0	0.4	0	0	0
N[C@@H](Cc1ccc(Cl)cc1)C(=O)O (racemic) [fenclonine-(+/-)]	93.6%	101%	96.4%	102%	97.2%	103%	107%	101%	93.7%	100%	94%	102%	97.9%	97.5%	93.2%	110%	106%	105%	98.6%	102%	98.1%	101%	97.7%	96.4%	97.1%	> 10 µM	> 10 µM	> 10 µM	> 10 µM	> 10 µM	0	0	0	0	0
CC(C)(O)C(Cl)(Cl)Cl [chlorobutanol]	99.7%	101%	96.5%	98.3%	96.5%	110%	96.8%	105%	96.1%	110%	95%	107%	98.7%	85.2%	98.1%	102%	96.9%	100%	102%	102%	105%	107%	104%	110%	98.9%	> 10 µM	> 10 µM	> 10 µM	> 10 µM	> 10 µM	0	0	0	0	0
CC(=O)Nc1ncc([N+](=O)[O-])s1 [nithiamide]	99.2%	104%	97.8%	103%	102%	108%	91.7%	95.4%	92.1%	96.3%	96.7%	97.8%	103%	105%	94.1%	101%	99.5%	100%	93.4%	98%	97.5%	98.2%	102%	110%	101%	> 10 µM	> 10 µM	> 10 µM	> 10 µM	> 10 µM	0	0	0	0	0
CC1(C)CCC(C)(C)c2cc(C3(c4ccc5cc(C(=O)O)ccc5c4)SCCS3)ccc21	97.9%	104%	94.4%	93.5%	98.6%	101%	85.2%	96.3%	106%	102%	106%	104%	93.9%	94.7%	94.6%	95.8%	98.7%	96.6%	98%	100%	104%	106%	89.4%	113%	98.8%	> 10 µM	> 10 µM	> 10 µM	> 10 µM	> 10 µM	0	0	0	0	0
Oc1ccc2[nH]cc(C3=CCNCC3)c2n1	94.8%	100%	97.1%	106%	105%	107%	106%	97.6%	89.1%	100%	79.9%	95.6%	97%	98.1%	100%	105%	91.2%	99.4%	97%	102%	100%	92.6%	105%	104%	102%	> 10 µM	> 10 µM	> 10 µM	> 10 µM	> 10 µM	0	0	0	0	0
CCOC(=O)Nc1ccc2c(c1)N(C(=O)CCN1CCOCC1)c1ccccc1S2 [moracizine]	98.4%	104%	101%	99%	96.6%	94.6%	92.6%	97.8%	91.6%	99.4%	101%	109%	96.3%	96.8%	80.8%	97.1%	101%	96.9%	98.8%	96.2%	103%	95.3%	98.8%	95.3%	98.3%	> 10 µM	> 10 µM	> 10 µM	> 10 µM	> 10 µM	0	0	0.9	0	0
Cc1c(S(=O)(=O)O)oc2c1C(=O)C(=O)c1c-2ccc2c1CCCC2(C)C [sodium-tanshinone-II-A-sulfonate]	96.4%	99.7%	91.1%	99.6%	94.6%	106%	92.2%	116%	95.9%	107%	97.7%	96.3%	109%	93.2%	102%	103%	100%	97.5%	84.5%	94.1%	90.2%	100%	101%	99.1%	98.6%	> 10 µM	> 10 µM	> 10 µM	> 10 µM	> 10 µM	0	0	0	1.8	0
N=C(N)NC(=O)c1cnn(-c2cccc3ncccc23)c1C1CC1 [zoniporide]	98.8%	101%	104%	100%	98.6%	89.9%	99.2%	105%	103%	101%	89.6%	91.8%	101%	102%	95%	92.7%	102%	94.9%	97.5%	104%	99.8%	95.1%	93.8%	94.5%	99.6%	> 10 µM	> 10 µM	> 10 µM	> 10 µM	> 10 µM	0	0	0	0	0
O=C(O[C@H]1C[C@H]2CC[C@@H](C1)[N+]21CCCC1)C(O)(c1ccccc1)c1ccccc1 [trospium]	95.7%	97.5%	101%	99.1%	88.9%	98.3%	93.8%	107%	94.8%	108%	92.8%	97.1%	94.7%	98.3%	99.9%	95.6%	99.5%	93%	95.3%	102%	101%	101%	97.2%	98.2%	94.3%	> 10 µM	> 10 µM	> 10 µM	> 10 µM	> 10 µM	0	0	0	0	0
COc1ccc2cc(OCC3(C(=O)O)CN(C(=O)c4ccc(F)cc4)C3)ccc2c1	94.3%	108%	96.1%	97.9%	95.8%	106%	88.7%	100%	93%	96.9%	93.5%	102%	94.8%	93.8%	99%	99.2%	96.9%	99.5%	96.2%	95%	106%	95.4%	104%	110%	102%	> 10 µM	> 10 µM	> 10 µM	> 10 µM	> 10 µM	0	0	0	0	0
CC(C)(C)c1cc(NC(=O)Nc2ccc(-c3cn4c(n3)sc3cc(OCCN5CCOCC5)ccc34)cc2)no1 [quizartinib]	101%	97.4%	103%	93.6%	103%	85.7%	97.5%	90.9%	89%	93.3%	103%	105%	103%	90.9%	86.5%	99.1%	100%	98.8%	104%	99.8%	104%	97.3%	96.6%	93.4%	96.1%	> 10 µM	> 10 µM	> 10 µM	> 10 µM	> 10 µM	0	0	0.6	0	0
CCCN(CCC)C(=O)C(CCC(=O)OCCCN1CCN(CCOC(=O)Cc2c(C)n(C(=O)c3ccc(Cl)cc3)c3ccc(OC)cc23)CC1)NC(=O)c1ccccc1 (stereo not given) [proglumetacin]	95.9%	106%	101%	104%	94%	91%	114%	112%	85.3%	93.9%	104%	96.5%	99.1%	112%	108%	115%	97.2%	98%	91.5%	102%	95.5%	96.2%	99%	110%	96.6%	> 10 µM	> 10 µM	> 10 µM	> 10 µM	> 10 µM	0	1.1	0	0	0
